pIC50: −log10 of the molar value.
Tests used:
SMYD3 [1] = biological target: T1, SMYD3 (Homo sapiens (Human), UniProt Q9H7B4); experiment: SMYD3 biochemical assay (SPA, 3H-SAM methylation of MEKK2 protein substrate); details: Table 2A; read-out: SMYD3 Biochem IC50
Procedure, shortened: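 Full-length native human SMYD3 (E. coli-expressed, tags removed) preincubated with compounds 30 min at room temperature, then reaction started with 3H-SAM and GST-tagged MEKK2 protein in 25 mM Tris-Cl pH 8.0, 1 mM TCEP, 0.005% BSG, 0.005% Tween 20. Quenched with unlabelled SAM (100 uM final); 3H-MEKK2 counted by SPA.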

SMYD3 [2] = biological target: T1, SMYD3; experiment: SMYD3 cell assay (Trimethyl-MEKK2 In-Cell Western in 293T/17 cells); type: cell-based; details: Table 2A; read-out: SMYD3 Cell IC50
Procedure, shortened: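 In-Cell Western ratio of trimethyl-Lys260 MEKK2 to anti-flag signal; percent inhibition from DMSO and maximum-inhibition controls, IC50 by non-linear regression, triplicates.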

T1 sequence (Q9H7B4 whole entry): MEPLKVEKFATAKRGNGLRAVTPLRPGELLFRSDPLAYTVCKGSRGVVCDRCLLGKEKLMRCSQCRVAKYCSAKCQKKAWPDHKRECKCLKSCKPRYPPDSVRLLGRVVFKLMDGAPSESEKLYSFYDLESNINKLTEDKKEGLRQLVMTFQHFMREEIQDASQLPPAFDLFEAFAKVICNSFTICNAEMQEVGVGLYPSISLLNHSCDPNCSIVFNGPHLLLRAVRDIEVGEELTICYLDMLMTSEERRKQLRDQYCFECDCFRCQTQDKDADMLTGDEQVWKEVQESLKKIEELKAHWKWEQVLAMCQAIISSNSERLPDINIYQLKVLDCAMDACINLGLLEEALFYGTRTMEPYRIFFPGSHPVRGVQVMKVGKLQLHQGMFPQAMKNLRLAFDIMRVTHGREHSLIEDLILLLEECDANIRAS

Row | pIC50 (SMYD3 [1]) | pIC50 (SMYD3 [2]) | Compound
1 | 8.92 | 7.67 | CNC1CCN(S(=O)(=O)N2CC[C@H](NC(=O)c3cc(C4CC4)on3)C[C@@H]2C)CC1 [compound 535, 5-cyclopropyl-N-((2S,4S)-2-methyl-1-((4-(methylamino)piperidin-1-yl)sulfonyl)piperidin-4-yl)isoxazole-3-carboxamide]
2 | 8.89 | 7.14 | C[C@@H]1C[C@H](NC(=O)c2cc(C3CC3)on2)CCN1S(=O)(=O)CC1CCN(CCc2ccccc2)CC1 [compound 537, 5-cyclopropyl-N-((2R,4R)-2-methyl-1-(((1-phenethylpiperidin-4-yl)methyl)sulfonyl)piperidin-4-yl)isoxazole-3-carboxamide]
3 | 8.89 | 7.53 | C[C@H]1C[C@@H](NC(=O)c2cc(C3CC3)on2)CCN1S(=O)(=O)CC1CCN(CCO)CC1 [compound 538, 5-cyclopropyl-N-((2S,4S)-1-(((1-(2-hydroxyethyl)piperidin-4-yl)methyl)sulfonyl)-2-methylpiperidin-4-yl)isoxazole-3-carboxamide]
4 | 8.72 | 7.35 | C[C@H]1C[C@@H](NC(=O)c2cc(C3CC3)on2)CCN1S(=O)(=O)CC1CCN(Cc2ccccc2)CC1 [compound 544, N-((2S,4S)-1-(((1-benzylpiperidin-4-yl)methyl)sulfonyl)-2-methylpiperidin-4-yl)-5-cyclopropylisoxazole-3-carboxamide]
5 | 8.70 | 7.40 | C[C@H]1C[C@@H](NC(=O)c2cc(C3CC3)on2)CCN1S(=O)(=O)N1CCC(N(C)C)CC1 [compound 545, 5-cyclopropyl-N-((2S,4S)-1-((4-(dimethylamino)piperidin-1-yl)sulfonyl)-2-methylpiperidin-4-yl)isoxazole-3-carboxamide]
6 | 8.68 | 7.44 | C[C@H]1C[C@@H](NC(=O)c2cc(C3CC3)on2)CCN1S(=O)(=O)N1CCC(NCc2ccccc2)CC1 [compound 546, N-((2S,4S)-1-((4-(benzylamino)piperidin-1-yl)sulfonyl)-2-methylpiperidin-4-yl)-5-cyclopropylisoxazole-3-carboxamide]
7 | 8.62 | 7.03 | C[C@H]1C[C@@H](NC(=O)c2cc(C3CC3)on2)CCN1S(=O)(=O)CCCCN [compound 548, N-((2S,4S)-1-((4-aminobutyl)sulfonyl)-2-methylpiperidin-4-yl)-5-cyclopropylisoxazole-3-carboxamide]
8 | 8.59 | 6.77 | CC(C)N1CCC(CS(=O)(=O)N2CC[C@H](NC(=O)c3cc(C4CC4)on3)C[C@@H]2C)CC1 [compound 550, 5-cyclopropyl-N-((2S,4S)-1-(((1-isopropylpiperidin-4-yl)methyl)sulfonyl)-2-methylpiperidin-4-yl)isoxazole-3-carboxamide]
9 | 8.47 | 6.98 | C[C@H]1C[C@@H](NC(=O)c2cc(C3CC3)on2)CCN1S(=O)(=O)CC1CCN(CCN2CCCCC2)CC1 [compound 553, 5-cyclopropyl-N-((2S,4S)-2-methyl-1-(((1-(2-(piperidin-1-yl)ethyl)piperidin-4-yl)methyl)sulfonyl)piperidin-4-yl)isoxazole-3-carboxamide]
10 | 8.46 | 7.15 | COCCN1CCC(CS(=O)(=O)N2CC[C@H](NC(=O)c3cc(C4CC4)on3)C[C@@H]2C)CC1 [compound 554, 5-cyclopropyl-N-((2S,4S)-1-(((1-(2-methoxyethyl)piperidin-4-yl)methyl)sulfonyl)-2-methylpiperidin-4-yl)isoxazole-3-carboxamide]
11 | 8.38 | 6.58 | CC(C)CN1CCC(CS(=O)(=O)N2CC[C@H](NC(=O)c3cc(C4CC4)on3)C[C@@H]2C)CC1 [compound 557, 5-cyclopropyl-N-((2S,4S)-1-(((1-isobutylpiperidin-4-yl)methyl)sulfonyl)-2-methylpiperidin-4-yl)isoxazole-3-carboxamide]
12 | 8.37 | 7.14 | C[C@H]1C[C@@H](NC(=O)c2cc(C3CC3)on2)CCN1S(=O)(=O)N1CCNCC1 [compound 558, 5-cyclopropyl-N-((2S,4S)-2-methyl-1-(piperazin-1-ylsulfonyl)piperidin-4-yl)isoxazole-3-carboxamide]
13 | 8.21 | 6.95 | C[C@H]1CN(S(=O)(=O)N2CCC(N)CC2)CC[C@H]1NC(=O)c1cc(C2CC2)on1 [compound 567, N-((3S,4R)-1-((4-aminopiperidin-1-yl)sulfonyl)-3-methylpiperidin-4-yl)-5-cyclopropylisoxazole-3-carboxamide]
14 | 8.20 | 6.81 | C[C@@H]1C[C@H](NC(=O)c2cc(C3CC3)on2)CCN1S(=O)(=O)CC1CCN(C)CC1 [compound 568, 5-cyclopropyl-N-((2R,4R)-2-methyl-1-(((1-methylpiperidin-4-yl)methyl)sulfonyl)piperidin-4-yl)isoxazole-3-carboxamide]

Continued, compound first:

Row | Compound | pIC50 (SMYD3 [1]) | pIC50 (SMYD3 [2])
15 | O=C(N[C@H]1C[C@H]2CC[C@@H](C1)N2S(=O)(=O)CC1CCN(Cc2ccccc2)CC1)c1cc(C2CC2)on1 [compound 536, N-((1R,3r,5S)-8-(((1-benzylpiperidin-4-yl)methyl)sulfonyl)-8-azabicyclo[3.2.1]octan-3-yl)-5-cyclopropylisoxazole-3-carboxamide] | 8.92 | 7.24
16 | COCCCN1CCC(CS(=O)(=O)N2[C@@H]3CC[C@H]2C[C@@H](NC(=O)c2cc(C4CC4)on2)C3)CC1 [compound 542, 5-cyclopropyl-N-((1R,3r,5S)-8-(((1-(3-methoxypropyl)piperidin-4-yl)methyl)sulfonyl)-8-azabicyclo[3.2.1]octan-3-yl)isoxazole-3-carboxamide] | 8.80 | 7.30
17 | O=C(N[C@H]1C[C@H]2CC[C@@H](C1)N2S(=O)(=O)CC1CCCNC1)c1cc(C2CC2)on1 (stereo partly drawn) [compound 547, 5-cyclopropyl-N-((1R,3r,5S)-8-((piperidin-3-ylmethyl)sulfonyl)-8-azabicyclo[3.2.1]octan-3-yl)isoxazole-3-carboxamide] | 8.64 | 7.15
18 | O=C(N[C@H]1C[C@H]2CC[C@@H](C1)N2S(=O)(=O)CC1CCN(CCN2CCCCC2)CC1)c1cc(C2CC2)on1 [compound 549, 5-cyclopropyl-N-((1R,3r,5S)-8-(((1-(2-(piperidin-1-yl)ethyl)piperidin-4-yl)methyl)sulfonyl)-8-azabicyclo[3.2.1]octan-3-yl)isoxazole-3-carboxamide] | 8.60 | 6.51
19 | O=C(N[C@H]1C[C@H]2CC[C@@H](C1)N2S(=O)(=O)CC1CCN(CCC(F)(F)F)CC1)c1cc(C2CC2)on1 [compound 551, 5-cyclopropyl-N-((1R,3r,5S)-8-(((1-(3,3,3-trifluoropropyl)piperidin-4-yl)methyl)sulfonyl)-8-azabicyclo[3.2.1]octan-3-yl)isoxazole-3-carboxamide] | 8.54 | 7.27
20 | NC1CC2(C1)CN(S(=O)(=O)N1[C@@H]3CC[C@H]1C[C@@H](NC(=O)c1cc(C4CC4)on1)C3)C2 [compound 552, N-((1R,3r,5S)-8-((6-amino-2-azaspiro[3.3]heptan-2-yl)sulfonyl)-8-azabicyclo[3.2.1]octan-3-yl)-5-cyclopropylisoxazole-3-carboxamide] | 8.51 | 7.31
21 | COCCN1CCC(CS(=O)(=O)N2[C@@H]3CC[C@H]2C[C@@H](NC(=O)c2cc(C4CC4)on2)C3)CC1 [compound 556, 5-cyclopropyl-N-((1R,3r,5S)-8-(((1-(2-methoxyethyl)piperidin-4-yl)methyl)sulfonyl)-8-azabicyclo[3.2.1]octan-3-yl)isoxazole-3-carboxamide] | 8.41 | 7.25
22 | CN1C2CCC1CN(S(=O)(=O)N1[C@@H]3CC[C@H]1C[C@@H](NC(=O)c1cc(C4CC4)on1)C3)C2 [compound 560, 5-cyclopropyl-N-((1R,3r,5S)-8-((8-methyl-3,8-diazabicyclo[3.2.1]octan-3-yl)sulfonyl)-8-azabicyclo[3.2.1]octan-3-yl)isoxazole-3-carboxamide] | 8.32 | 7.29
23 | CNCCNCCCS(=O)(=O)N1[C@@H]2CC[C@H]1C[C@@H](NC(=O)c1cc(C3CC3)on1)C2 [compound 563, 5-cyclopropyl-N-((1R,3r,5S)-8-((3-((2-(methylamino)ethyl)amino)propyl)sulfonyl)-8-azabicyclo[3.2.1]octan-3-yl)isoxazole-3-carboxamide] | 8.28 | 6.47
24 | NCCNCCCS(=O)(=O)N1[C@@H]2CC[C@H]1C[C@@H](NC(=O)c1cc(C3CC3)on1)C2 [compound 564, N-((1R,3r,5S)-8-((3-((2-aminoethyl)amino)propyl)sulfonyl)-8-azabicyclo[3.2.1]octan-3-yl)-5-cyclopropylisoxazole-3-carboxamide] | 8.28 | 6.78
25 | C[C@H]1C[C@@H](NC(=O)c2cc(C3CC3)on2)CCN1S(=O)(=O)N1CC2CCC(C1)N2C [compound 565, 5-cyclopropyl-N-((2S,4S)-2-methyl-1-((8-methyl-3,8-diazabicyclo[3.2.1]octan-3-yl)sulfonyl)piperidin-4-yl)isoxazole-3-carboxamide] | 8.22 | 7.31
26 | C[C@H]1C[C@@H](NC(=O)c2cc(C3CC3)on2)CCN1S(=O)(=O)CCCNCc1ccc(C(F)(F)F)cc1 [compound 566, 5-cyclopropyl-N-((2S,4S)-2-methyl-1-((3-((4-(trifluoromethyl)benzyl)amino)propyl)sulfonyl)piperidin-4-yl)isoxazole-3-carboxamide] | 8.21 | 6.49
27 | O=C(N[C@H]1C[C@H]2CC[C@@H](C1)N2S(=O)(=O)C[C@@H]1CCCNC1)c1cc(C2CC2)on1 [compound 569, 5-cyclopropyl-N-((1R,3R,5S)-8-((((R)-piperidin-3-yl)methyl)sulfonyl)-8-azabicyclo[3.2.1]octan-3-yl)isoxazole-3-carboxamide] | 8.18 | 7.40

Source: US10577363B2, “Substituted piperidine compounds” (EPIZYME, INC., priority 2014, dated 2020)
